≈ marks a conversion by molar mass, not a printed value. Where “and” joins values, the source holds several entries; their conditions need not be identical. Equal entries are not always repeated. Where two headings read alike, the source gives them in different places.
Columns and labels:
[1] = test system: SKOV-3 cells; assay: MTT cell viability, dose-response curves 24 h; format: cell-based, human; details: for IC50: read-out: IC50 (half-maximal inhibitory concentration), SKOV-3
Experimental: (§1) Cultures (2 × 10^4 cells/well) were seeded with 200 μL of supplemented medium (Sigma®) in 96-well plates (Corning®, Corning, NY, USA) and incubated for 24 h. Cell treatments were 5-200 μg/mL of samples/controls for 24 h. At the end of the treatments, we added MTT (5 mg/mL, Sigma®) for 4 h of incubation, and optical density was measured at λ = 590 nm in a VariosKan® Flash (Thermo-Scientific®, Waltham, MA, USA). The half-maximal inhibitory concentration (IC50) was determined.

[2] = test system: CHO-K1 cells; assay: MTT cell viability, dose-response curves 24 h; format: cell-based; details: for IC50: read-out: IC50 (half-maximal inhibitory concentration), CHO-K1
Experimental: as §1

[3] = test system: OVCAR-3 cells; assay: MTT cell viability, dose-response curves 24 h; format: cell-based; details: for IC50: read-out: IC50 (half-maximal inhibitory concentration), OVCAR-3
Experimental: as §1

[4] = test system: BEAS-2B cells; assay: MTT cell viability, dose-response curves 24 h; format: cell-based
Experimental: as §1

[5] = test system: CACO-2 cells; assay: MTT cell viability, dose-response curves 24 h; format: cell-based; details: for IC50: read-out: IC50 (half-maximal inhibitory concentration), CACO-2
Experimental: as §1

[6] = test system: ovarian cancer tumoral lesions; parameters: method as in PMID 32276584; details: 50 mg/kg, peritumoral route; cited from earlier work
[7] = test system: KB cell; parameters: method as in PMID 4437313; details: Ga isolated from RHTR leaves; cited from earlier work
[8] = Homo sapiens, SK-OV-3, MTT, 24 h
[9] = Homo sapiens, SK-OV-3, MTT, 24 h, value in brackets
[10] = Cricetulus griseus, CHO-K1, 24 h, MTT, 24 h
[11] = Cricetulus griseus, CHO-K1, 24 h, MTT, 24 h, value in brackets
[12] = Homo sapiens, OVCAR-3, MTT, 24 h
[13] = Homo sapiens, OVCAR-3, MTT, 24 h, value in brackets
[14] = Homo sapiens, BEAS-2B, MTT, read-out: IC50 (half-maximal inhibitory concentration), BEAS-2B
[15] = Homo sapiens, BEAS-2B, MTT, value in brackets, read-out: IC50 (half-maximal inhibitory concentration), BEAS-2B
[16] = Homo sapiens, Caco-2, MTT, 24 h
[17] = Homo sapiens, Caco-2, MTT, 24 h, value in brackets

Molecule | IC50 [1, 8] | IC50 [1, 9] | IC50 [2, 10] | IC50 [2, 11] | IC50 [3, 12] | IC50 [3, 13] | IC50 [4, 14] | IC50 [4, 15] | IC50 [5, 16] | IC50 [5, 17] | IC50 (half-maximal inhibitory concentration), CHO-K1 ([2]; MTT, 24 h) | IC50 (half-maximal inhibitory concentration), BEAS-2B ([4]; MTT) | further results
O=c1c(O)c(-c2ccc(O)c(O)c2)oc2cc(O)cc(O)c12 [Compound 9, quercetin] | > 200 µg/mL | > 662 µM | 127 µg/mL | 420 µM | 200 µg/mL | 662 µM | 189 µg/mL | 625 µM | 150 µg/mL | 496 µM | – | – | –
C[C@@H]1O[C@@H](Oc2c(-c3ccc(O)c(O)c3)oc3cc(O)cc(O)c3c2=O)[C@H](O)[C@H](O)[C@H]1O [Compound 12, quercitrin] | – | – | – | – | – | – | – | – | – | – | – | – | IC50 ([1]; Homo sapiens, SK-OV-3, 24 h): > 200 µg/mL and > 446 µM; IC50 ([2]; Cricetulus griseus, CHO-K1, 24 h): > 200 µg/mL and > 446 µM; IC50 ([3]; Homo sapiens, OVCAR-3, 24 h): > 200 µg/mL and > 446 µM; IC50 ([4]; Homo sapiens, BEAS-2B, read-out: IC50 (half-maximal inhibitory concentration), BEAS-2B): > 200 µg/mL and > 446 µM; IC50 ([5]; Homo sapiens, Caco-2, 24 h): 179 µg/mL and 399 µM
O=c1c(O)c(-c2ccc(O)c(O)c2)oc2cc(O)ccc12 [Compound 16, fisetin] | 200 µg/mL | 699 µM | 46 µg/mL | 161 µM | 200 µg/mL | 699 µM | 50 µg/mL | 175 µM | 100 µg/mL | 349 µM | – | – | –
O=C(O)c1cc(O)c(O)c(O)c1 [Gallic acid, gallic acid] | 50 µg/mL | 294 µM | ~150 µg/mL | 588 µM | 43 µg/mL | 253 µM | – | 147 µM | 25 µg/mL | 147 µM | 100 µg/mL (≈ 588 µM) | 25 µg/mL (≈ 147 µM) | inhibition of tumoral lesions (of progression) [6]: 50%; IC50 (half-maximal inhibitory concentration), BEAS-2B ([4]; MTT, listed as Ga): ~ 150 μg/mL; IC50, KB cell viability [7]: 3.1 µg/mL (≈ 18.2 µM)
myricitrin [Compound 6] | – | – | – | – | – | – | – | – | – | – | 94 µg/mL | 160 µg/mL | IC50 (half-maximal inhibitory concentration), SKOV-3 ([1]; MTT, 24 h): 197 µg/mL; IC50 ([1]; MTT, 24 h, value in brackets): 424 µM; IC50 ([2]; MTT, 24 h, value in brackets): 202 µM; IC50 (half-maximal inhibitory concentration), OVCAR-3 ([3]; MTT, 24 h): 200 µg/mL; IC50 ([3]; MTT, 24 h, value in brackets): 431 µM; IC50 ([4]; read-out: IC50 (half-maximal inhibitory concentration), BEAS-2B, MTT, value in brackets): 344 µM; IC50 (half-maximal inhibitory concentration), CACO-2 ([5]; MTT, 24 h): > 200 µg/mL; IC50 ([5]; MTT, 24 h, value in brackets): > 431 µM
